In patent publication US10457709B2, “Antimicrobial peptides, their variants and uses” (priority 2015, dated 2019):
Read-outs that look alike come from different tables or passages of the source. Square brackets hold non-standard residues; d marks the D form. Peptide text beside a SMILES is read from it.

Experiments:
[1] = system: C. parapsilosis clinical strains; assay: MIC, clinical yeast strains; type: cell-based, Candida parapsilosis; set-up: unit: µg/ml
Outline: (§1)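 MIC = lowest concentration without visual growth after 20–24 h at 37° C. Microbroth dilution, 5.0×10^5 cfu/ml, 0.125–128 μg/ml range; MH broth for bacteria, potato dextrose broth for yeasts.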

[2] = system: Klebsiella pneumoniae clinical strains; type: cell-based; conditions: microdilution, Muller Hinton broth-cation adjusted, 0.02% BSA, 0.2% acetic acid
Outline: as §1

[3] = system: Escherichia coli clinical strains; type: cell-based; conditions: microdilution, Muller Hinton broth-cation adjusted, 0.02% BSA, 0.2% acetic acid
Outline: as §1

[4] = system: Pseudomonas aeruginosa clinical strains; type: cell-based; conditions: microdilution, Muller Hinton broth-cation adjusted, 0.02% BSA, 0.2% acetic acid
Outline: as §1

[5] = system: C. quillermondiae clinical strains; assay: MIC, clinical yeast strains; type: cell-based, Candida quillermondiae; set-up: unit: μg/ml; conditions: C. quillermondiae clinical yeast strain 1
Outline: as §1

[6] = system: C. glabrata clinical strains; assay: MIC, clinical yeast strains; type: cell-based, Candida glabrata; set-up: unit: µg/ml
Outline: as §1

[7] = system: Candida albicans clinical strains; assay: MIC, clinical yeast strains; type: cell-based; set-up: unit: μg/ml
Outline: as §1

[8] = system: Enterobacter cloacae clinical strains; type: cell-based; set-up: Minimum inhibitory concentration: unit: μg/ml; conditions: microdilution, Muller Hinton broth-cation adjusted, 0.02% BSA, 0.2% acetic acid
Outline: as §1

[9] = system: Streptococcus pneumoniae clinical strains; type: cell-based; set-up: Minimum inhibitory concentration: unit: μg/ml; conditions: microdilution, Muller Hinton broth-cation adjusted, 0.02% BSA, 0.2% acetic acid
Outline: as §1

[10] = system: Staphylococcus aureus clinical strains; type: cell-based; set-up: Minimum inhibitory concentration: unit: μg/ml; conditions: microdilution, Muller Hinton broth-cation adjusted, 0.02% BSA, 0.2% acetic acid
Outline: as §1

[11] = system: Proteus mirabilis clinical strains; type: cell-based; set-up: Minimum inhibitory concentration: unit: μg/ml; conditions: microdilution, Muller Hinton broth-cation adjusted, 0.02% BSA, 0.2% acetic acid
Outline: as §1

[12] = system: Serratia marcescens clinical strains; type: cell-based; set-up: Minimum inhibitory concentration: unit: μg/ml; conditions: microdilution, Muller Hinton broth-cation adjusted, 0.02% BSA, 0.2% acetic acid
Outline: as §1

[13] = system: Acinetobacter baumannii clinical strains; type: cell-based; set-up: Minimum inhibitory concentration: unit: μg/ml; conditions: microdilution, Muller Hinton broth-cation adjusted, 0.02% BSA, 0.2% acetic acid
Outline: as §1

[14] = system: Acinetobacter johnsonii clinical strains; type: cell-based; conditions: Acinetobacter johnsonii clinical strain 1; microdilution, Muller Hinton broth-cation adjusted, 0.02% BSA, 0.2% acetic acid
Outline: as §1

[15] = Klebsiella pneumoniae clinical strain 1
[16] = Klebsiella pneumoniae clinical strain 2
[17] = Klebsiella pneumoniae clinical strain 3
[18] = Klebsiella pneumoniae clinical strain 4
[19] = Klebsiella pneumoniae clinical strain 5
[20] = Escherichia coli clinical strain 1
[21] = Escherichia coli clinical strain 2
[22] = Escherichia coli clinical strain 3
[23] = Escherichia coli clinical strain 4
[24] = Escherichia coli clinical strain 5
[25] = Pseudomonas aeruginosa clinical strain 1
[26] = Pseudomonas aeruginosa clinical strain 2
[27] = Pseudomonas aeruginosa clinical strain 3
[28] = Pseudomonas aeruginosa clinical strain 4
[29] = Pseudomonas aeruginosa clinical strain 5
[30] = Enterobacter cloacae clinical strain 1
[31] = Enterobacter cloacae clinical strain 2
[32] = Enterobacter cloacae clinical strain 3
[33] = Enterobacter cloacae clinical strain 4
[34] = Enterobacter cloacae clinical strain 5
[35] = Streptococcus pneumoniae clinical strain 1
[36] = Streptococcus pneumoniae clinical strain 2
[37] = Streptococcus pneumoniae clinical strain 3
[38] = Streptococcus pneumoniae clinical strain 4
[39] = Streptococcus pneumoniae clinical strain 5
[40] = Staphylococcus aureus clinical strain 1
[41] = Staphylococcus aureus clinical strain 2
[42] = Staphylococcus aureus clinical strain 3
[43] = Staphylococcus aureus clinical strain 4
[44] = Staphylococcus aureus clinical strain 5
[45] = Proteus mirabilis clinical strain 1
[46] = Proteus mirabilis clinical strain 2
[47] = Proteus mirabilis clinical strain 3
[48] = Proteus mirabilis clinical strain 4
[49] = Proteus mirabilis clinical strain 5
[50] = Serratia marcescens clinical strain 1
[51] = Serratia marcescens clinical strain 2
[52] = Serratia marcescens clinical strain 3
[53] = Serratia marcescens clinical strain 4
[54] = Serratia marcescens clinical strain 5
[55] = Acinetobacter baumannii clinical strain 1
[56] = Acinetobacter baumannii clinical strain 2
[57] = Acinetobacter baumannii clinical strain 3
[58] = Acinetobacter baumannii clinical strain 4
[59] = Acinetobacter baumannii clinical strain 5

## CC[C@@H](C)[C@@H](NC(=O)[C@@H](CC(C)C)NC(=O)[C@@H](CCCNC(=N)N)NC(=O)[C@H](N)CCCNC(=N)N)C(=O)N[C@H](Cc1c[nH]c2ccccc12)C(=O)N[C@H](CCCNC(=N)N)C(=O)N[C@H](CCCNC(=N)N)C(=O)N[C@H](Cc1ccccc1)C(=O)N[C@H](CCCCN)C(=O)N[C@H](Cc1c[nH]c2ccccc12)C(=O)N[C@H](CC(C)C)C(=O)N[C@H](CCCNC(=N)N)C(=O)O [Chain204D] (H-[dR][dR][dL][dI][dW][dR][dR][dF][dK][dW][dL][dR]-OH)
[1]; C. parapsilosis clinical yeast strain 1
  Minimum inhibitory concentration: 4
[1]; C. parapsilosis clinical yeast strain 2
  Minimum inhibitory concentration: 4
[1]; C. parapsilosis clinical yeast strain 3
  Minimum inhibitory concentration: 8
[1]; C. parapsilosis clinical yeast strain 4
  Minimum inhibitory concentration: 8
[2]; [15]
  Minimum inhibitory concentration: 8
[2]; [16]
  Minimum inhibitory concentration: 4
[2]; [17]
  Minimum inhibitory concentration: 16
[2]; [18]
  Minimum inhibitory concentration: 4
[2]; [19]
  Minimum inhibitory concentration: 2
[3]; [20]
  Minimum inhibitory concentration: 8
[3]; [21]
  Minimum inhibitory concentration: 1
[3]; [22]
  Minimum inhibitory concentration: 1
[3]; [23]
  Minimum inhibitory concentration: 1
[3]; [24]
  Minimum inhibitory concentration: 1
[4]; [25]
  Minimum inhibitory concentration: 4
[4]; [26]
  Minimum inhibitory concentration: 16
[4]; [27]
  Minimum inhibitory concentration: 8
[4]; [28]
  Minimum inhibitory concentration: 8
[4]; [29]
  Minimum inhibitory concentration: 4
[5]
  Minimum inhibitory concentration: 4
[6]; C. glabrata clinical yeast strain 1
  Minimum inhibitory concentration: 4
[6]; C. glabrata clinical yeast strain 2
  Minimum inhibitory concentration: 8
[6]; C. glabrata clinical yeast strain 3
  Minimum inhibitory concentration: 32
[6]; C. glabrata clinical yeast strain 4
  Minimum inhibitory concentration: 32
[7]; Candida albicans clinical yeast strain 1
  Minimum inhibitory concentration: 8
[7]; Candida albicans clinical yeast strain 2
  Minimum inhibitory concentration: 8
[7]; Candida albicans clinical yeast strain 3
  Minimum inhibitory concentration: 8
[7]; Candida albicans clinical yeast strain 4
  Minimum inhibitory concentration: 8
[7]; Candida albicans clinical yeast strain 5
  Minimum inhibitory concentration: 8
[8]; [30]
  Minimum inhibitory concentration: 4
[8]; [31]
  Minimum inhibitory concentration: 8
[8]; [32]
  Minimum inhibitory concentration: 4
[8]; [33]
  Minimum inhibitory concentration: 8
[8]; [34]
  Minimum inhibitory concentration: 2
[9]; [35]
  Minimum inhibitory concentration: 4
[9]; [36]
  Minimum inhibitory concentration: 4
[9]; [37]
  Minimum inhibitory concentration: 4
[9]; [38]
  Minimum inhibitory concentration: 4
[9]; [39]
  Minimum inhibitory concentration: 4
[10]; [40]
  Minimum inhibitory concentration: 1
[10]; [41]
  Minimum inhibitory concentration: 2
[10]; [42]
  Minimum inhibitory concentration: 2
[10]; [43]
  Minimum inhibitory concentration: 1
[10]; [44]
  Minimum inhibitory concentration: 1
[11]; [45]
  Minimum inhibitory concentration: >128
[11]; [46]
  Minimum inhibitory concentration: 32
[11]; [47]
  Minimum inhibitory concentration: 64
[11]; [48]
  Minimum inhibitory concentration: >128
[11]; [49]
  Minimum inhibitory concentration: >128
[12]; [50]
  Minimum inhibitory concentration: >128
[12]; [51]
  Minimum inhibitory concentration: >128
[12]; [52]
  Minimum inhibitory concentration: 128
[12]; [53]
  Minimum inhibitory concentration: >128
[12]; [54]
  Minimum inhibitory concentration: >128
[13]; [55]
  Minimum inhibitory concentration: 4
[13]; [56]
  Minimum inhibitory concentration: 4
[13]; [57]
  Minimum inhibitory concentration: 4
[13]; [58]
  Minimum inhibitory concentration: 4
[13]; [59]
  Minimum inhibitory concentration: 4

## Gentamicin [reference compound]
[2]; [15]
  Minimum inhibitory concentration: 2
[2]; [16]
  Minimum inhibitory concentration: 0.25
[2]; [17]
  Minimum inhibitory concentration: 2
[2]; [18]
  Minimum inhibitory concentration: 2
[2]; [19]
  Minimum inhibitory concentration: 4
[14]
  Minimum inhibitory concentration: 0.25
[3]; [20]
  Minimum inhibitory concentration: 0.5
[3]; [21]
  Minimum inhibitory concentration: 0.5
[3]; [22]
  Minimum inhibitory concentration: 1
[3]; [23]
  Minimum inhibitory concentration: 1
[3]; [24]
  Minimum inhibitory concentration: 1
[4]; [25]
  Minimum inhibitory concentration: 1
[4]; [26]
  Minimum inhibitory concentration: 0.5
[4]; [27]
  Minimum inhibitory concentration: 0.5
[4]; [28]
  Minimum inhibitory concentration: 0.5
[4]; [29]
  Minimum inhibitory concentration: 0.25
[8]; [30]
  Minimum inhibitory concentration: 0.25
[8]; [31]
  Minimum inhibitory concentration: 0.25
[8]; [32]
  Minimum inhibitory concentration: 0.25
[8]; [33]
  Minimum inhibitory concentration: 0.25
[8]; [34]
  Minimum inhibitory concentration: 0.25
[9]; [35]
  Minimum inhibitory concentration: 2
[9]; [36]
  Minimum inhibitory concentration: 2
[9]; [37]
  Minimum inhibitory concentration: 2
[9]; [38]
  Minimum inhibitory concentration: 2
[9]; [39]
  Minimum inhibitory concentration: 1
[10]; [40]
  Minimum inhibitory concentration: 0.5
[10]; [41]
  Minimum inhibitory concentration: 0.5
[10]; [42]
  Minimum inhibitory concentration: 0.5
[10]; [43]
  Minimum inhibitory concentration: 0.5
[10]; [44]
  Minimum inhibitory concentration: 0.5
[11]; [45]
  Minimum inhibitory concentration: 2
[11]; [46]
  Minimum inhibitory concentration: 2
[11]; [47]
  Minimum inhibitory concentration: >128
[11]; [48]
  Minimum inhibitory concentration: 8
[11]; [49]
  Minimum inhibitory concentration: >128
[12]; [50]
  Minimum inhibitory concentration: 1
[12]; [51]
  Minimum inhibitory concentration: 2
[12]; [52]
  Minimum inhibitory concentration: 1
[12]; [53]
  Minimum inhibitory concentration: 1
[12]; [54]
  Minimum inhibitory concentration: 1
[13]; [55]
  Minimum inhibitory concentration: 0.5
[13]; [56]
  Minimum inhibitory concentration: 0.25
[13]; [57]
  Minimum inhibitory concentration: 0.5
[13]; [58]
  Minimum inhibitory concentration: 0.5
[13]; [59]
  Minimum inhibitory concentration: 0.25
